Data from patent US20080200467A1, “SOLUBLE EPOXIDE HYDROLASE INHIBITORS” (Arete Therapeutics, Inc., priority 2006, published 2008).

Test system: soluble epoxide hydrolase (sEH)
Experiment: Fluorescent Assay for Mouse and Human Soluble Epoxide Hydrolase (CMNPC substrate)
Assay type: biochemical
Conditions: Concentration 500 nM
From the text: Fluorescent Assay for Mouse and Human Soluble Epoxide Hydrolase Recombinant mouse sEH (MsEH) and human sEH (HsEH) were produced in a baculovirus expression system as previously reported. Grant et al., J. Biol. Chem., 268:17628-17633 (1993); Beetham et al., Arch. Biochem. Biophys., 305:197-201 (1993). The expressed proteins were purified from cell lysate by affinity chromatography. Wixtrom et al., Anal. Biochem., 169:71-80 (1988). Protein concentration was quantified using the Pierce BCA assay using bovine serum albumin as the calibrating standard. The preparations were at least 97% pure as judged by SDS-PAGE and scanning densitometry. They contained no detectable esterase or glutathione transferase activity which can interfere with the assay. The assay was also evaluated with similar results in crude cell lysates or homogenate of tissues. The IC50s for each inhibitor were according to the following procedure: [drawing 218] […] Jones P. D. et. al.; Analytical Biochemistry 2005; 343: pp. 66-75) Bis/Tris HCl 25 mM pH 7.0 containing 0.1 mg/mL of BSA (buffer […] at 0.25 mM in DMSO. Mother solution of enzyme in buffer A (Mouse sEH at 6 μg/mL and Human sEH at 5 μg/mL). Inhibitor dissolved in DMSO at the appropriate concentration. In a black 96 well plate, fill all the wells with 150 μL of buffer A. Add 2 μL of DMSO in well A2 and A3, and then add 2 μL of inhibitor solution in A1 and A4 through A12. Add 150 μL of buffer A in row A, then mix several time and transfer 150 μL to row B. Repeat this operation up to row H. The 150 μL removed from row H is discarded. Add 20 μL of buffer A in column 1 and 2, then add 20 μL of enzyme solution to column 3 to 12. Incubate the plate for 5 minutes in the plate reader at 30° C. During incubation prepare the working solution of substrate by mixing 3.68 mL of buffer A (4×0.920 mL) with 266 μL (2×133 μL) of substrate solution). At t=0, add 30 μL of working substrate solution with multi-channel pipette labeled “Briggs 303” and start the reading ([S]final: 5 μM). Read with ex: 330 nm (20 nm) and em: 465 nm (20 nm) every 30 second for 10 minutes. The velocities are used to analyze and calculate the IC50s. Tables 4-6 show the activity of compounds when tested with the assay at 50, 500, 5000, 50000, and 500000 nM.

Row | % Inhibition [%] | SMILES
1 | 79 | Cc1ccc(S(=O)(=O)N2CCC(NC(=O)C(O)CCC34CC5CC(CC(C5)C3)C4)CC2)cc1 (centres unmarked) [Compound 138, 4-Adamantan-1-yl-2-hydroxy-N-(1-tosylpiperidin-4-yl)butanamide]
2 | 80 | Cc1ccc(S(=O)(=O)N2CCC(NC(=O)C(O)C34CC5CC(CC(C5)C3)C4)CC2)cc1 (centres unmarked) [Compound 124, 2-Adamantan-1-yl-2-hydroxy-N-[1-(toluene-4-sulfonyl)-piperidin-4-yl]-acetamide]
3 | 65 | O=C(Nc1cccc(OCCCN2CCOCC2)c1)C(=O)c1ccc(C(F)(F)F)cc1 [Compound 1, N-[3-(3-Morpholin-4-yl-propoxy)-phenyl]-2-oxo-2-(4-trifluoromethyl-phenyl)-acetamide]
4 | 78 | Cc1ccc(S(=O)(=O)N2CCC(NC(=O)C(O)CCC3CCCCC3)CC2)cc1 (centres unmarked) [Compound 140, 4-Cyclohexyl-2-hydroxy-N-(1-tosylpiperidin-4-yl)butanamide]
5 | 83 | O=C(NC1CCN(S(=O)(=O)c2cccc(C(F)(F)F)c2)CC1)C(O)CC12CC3CC(CC(C3)C1)C2 (centres unmarked) [Compound 133, 3-Adamantan-1-yl-2-hydroxy-N-(1-(3-(trifluoromethyl)phenylsulfonyl)piperidin-4-yl)propanamide]
6 | 72 | COC(=O)CCCCCCCCCCCNC(=O)C(O)c1ccc(C(F)(F)F)cc1 (centres unmarked) [Compound 158, Methyl 12-(2-hydroxy-2-(4-(trifluoromethyl)phenyl)acetamido)dodecanoate]

Same assay, conditions: Concentration 5000 nM

Row | % Inhibition [%] | SMILES
7 | 84 | Cc1ccc(S(=O)(=O)N2CCC(CNC(=O)C(O)C34CC5CC(CC(C5)C3)C4)CC2)cc1 (centres unmarked) [Compound 127, 2-Adamantan-1-yl-2-hydroxy-N-[1-(toluene-4-sulfonyl)-piperidin-4-ylmethyl]-acetamide]
8 | 99 | O=C(Nc1cccc(OCc2ccccc2)c1)C(O)c1ccc(C(F)(F)F)cc1 (centres unmarked) [Compound 105, N-(3-Benzyloxy-phenyl)-2-hydroxy-2-(4-trifluoromethyl-phenyl)-acetamide]
9 | 91 | O=C(NC12CC3CC(CC(C3)C1)C2)C(O)Cc1ccc(OCc2ccccc2)cc1 (centres unmarked) [Compound 107, N-Adamantan-1-yl-3-(4-benzyloxy-phenyl)-2-hydroxy-propionamide]
10 | 99 | Cc1ccc(S(=O)(=O)N2CCC(NC(=O)C(=O)CC34CC5CC(CC(C5)C3)C4)CC2)cc1 [Compound 19, 3-Adamantan-1-yl-2-oxo-N-[1-(toluene-4-sulfonyl)-piperidin-4-yl]-propionamide]
11 | 95 | O=C(Nc1cccc(OCCCN2CCOCC2)c1)C(O)c1ccc(C(F)(F)F)cc1 (centres unmarked) [Compound 101, 2-Hydroxy-N-[3-(3-morpholin-4-yl-propoxy)-phenyl]-2-(4-trifluoromethyl-phenyl)-acetamide]
12 | 71 | O=C(Cc1ccc(OCc2ccccc2)cc1)C(=O)NCC12CC3CC(CC(C3)C1)C2 [Compound 6, N-Adamantan-1-ylmethyl-3-(4-benzyloxy-phenyl)-2-oxo-propionamide]
13 | 95 | O=C(NCCc1ccc(F)cc1)C(O)CCC12CC3CC(CC(C3)C1)C2 (centres unmarked) [Compound 145, 4-Adamantan-1-yl-N-(4-fluorophenethyl)-2-hydroxybutanamide]
14 | 93 | Cc1ccc(S(=O)(=O)N2CCC(NC(=O)C(=O)C34CC5CC(CC(C5)C3)C4)CC2)cc1 [Compound 18, 2-Adamantan-1-yl-2-oxo-N-[1-(toluene-4-sulfonyl)-piperidin-4-yl]-acetamide]
15 | 98 | O=C(NCc1ccc(OCc2ccccc2)cc1)C(O)CC12CC3CC(CC(C3)C1)C2 (centres unmarked) [Compound 125, 3-Adamantan-1-yl-N-(4-benzyloxy-benzyl)-2-hydroxy-propionamide]
16 | 86 | O=C(O)CCCCCCCCCCCNC(=O)C(O)CCC12CC3CC(CC(C3)C1)C2 (centres unmarked) [Compound 165, 12-(4-Adamantan-1-yl-2-hydroxybutanamido)dodecanoic acid]
17 | 90 | O=C(O)CCCCCCCCCCCNC(=O)C(O)CC12CC3CC(CC(C3)C1)C2 (centres unmarked) [Compound 161, 12-(3-Adamantan-1-yl-2-hydroxypropanamido)dodecanoic acid]
18 | 81 | CCCC(=O)N1CCC(NC(=O)C(O)C2CCCCC2)CC1 (centres unmarked) [Compound 116, N-(1-Butyryl-piperidin-4-yl)-2-cyclohexyl-2-hydroxy-acetamide]
19 | 98 | O=C(NC1CCN(S(=O)(=O)c2cccc(C(F)(F)F)c2)CC1)C(O)C12CC3CC(CC(C3)C1)C2 (centres unmarked) [Compound 123, 2-Adamantan-1-yl-2-hydroxy-N-[1-(3-trifluoromethyl-benzenesulfonyl)-piperidin-4-yl]-acetamide]
20 | 85 | O=C(Nc1ccc(-n2ccnc2)cc1)C(=O)c1ccc(C(F)(F)F)cc1 [Compound 8, N-(4-Imidazol-1-yl-phenyl)-2-oxo-2-(4-trifluoromethyl-phenyl)-acetamide]
21 | 86 | O=C(O)CCCCCCCCCCCNC(=O)C(O)c1ccc(C(F)(F)F)cc1 (centres unmarked) [Compound 159, 12-(2-Hydroxy-2-(4-(trifluoromethyl)phenyl)acetamido)dodecanoic acid]
22 | 99 | O=C(Nc1ccc(OCc2ccccc2)cc1)C(O)CCC12CC3CC(CC(C3)C1)C2 (centres unmarked) [Compound 143, N-(4-(Benzyloxy)phenyl)-4-adamantan-1-yl-2-hydroxybutanamide]
23 | 73 | O=C(NCc1ccc(OCc2ccccc2)cc1)C(O)CCC12CC3CC(CC(C3)C1)C2 (centres unmarked) [Compound 146, N-(4-(Benzyloxy)benzyl)-4-adamantyl-2-hydroxybutanamide]
24 | 83 | Cc1ccc(S(=O)(=O)N2CCC(NC(=O)C(O)CCc3ccc(C(F)(F)F)cc3)CC2)cc1 (centres unmarked) [Compound 136, 2-Hydroxy-N-(1-tosylpiperidin-4-yl)-4-(4-(trifluoromethyl)phenyl)butanamide]
25 | 66 | O=C(Nc1cccc(OCc2ccccc2)c1)C(O)C1CCCCC1 (centres unmarked) [Compound 113, N-(3-Benzyloxy-phenyl)-2-cyclohexyl-2-hydroxy-acetamide]
26 | 76 | O=C(NC1CCN(S(=O)(=O)c2ccc(Cl)cc2)CC1)C(O)CC12CC3CC(CC(C3)C1)C2 (centres unmarked) [Compound 148, N-(1-(4-Chlorophenylsulfonyl)piperidin-4-yl)-3-adamantan-1-yl-2-hydroxypropanamide]
27 | 79 | CNS(=O)(=O)c1ccc(CCNC(=O)C(O)CCC23CC4CC(CC(C4)C2)C3)cc1 (centres unmarked) [Compound 156, 4-Adamantan-1-yl-2-hydroxy-N-(4-(N-methylsulfamoyl)phenethyl)butanamide]
28 | 59 | O=C(O)CCCCCCCCCCCNC(=O)C(O)Cc1ccc(C(F)(F)F)cc1 (centres unmarked) [Compound 164, 12-(2-Hydroxy-3-(4-(trifluoromethyl)phenyl)propanamido)dodecanoicacid]

Same assay, conditions: Concentration 50000 nM

Row | % Inhibition [%] | SMILES
29 | 63 | O=C(NCCN1CCOCC1)c1ccc(NC(=O)C(O)c2ccc(C(F)(F)F)cc2)cc1 (centres unmarked) [Compound 102, 4-[2-Hydroxy-2-(4-trifluoromethyl-phenyl)-acetylamino]-N-(2-morpholin-4-yl-ethyl)-benzamide]
30 | 74 | CCCC(=O)N1CCC(NC(=O)C(O)c2ccc(C(F)(F)F)cc2)CC1 (centres unmarked) [Compound 114, N-(1-Butyryl-piperidin-4-yl)-2-hydroxy-2-(4-trifluoromethyl-phenyl)-acetamide]
31 | 82 | O=C(Nc1ccc(C(=O)NCCN2CCOCC2)cc1)C(=O)c1ccc(C(F)(F)F)cc1 [Compound 2, N-(2-Morpholin-4-yl-ethyl)-4-[2-oxo-2-(4-trifluoromethyl-phenyl)-acetylamino]-benzamide]
32 | 80 | Cc1ccc(S(=O)(=O)N2CCC(NC(=O)C(O)c3ccc(C(F)(F)F)cc3)CC2)cc1 (centres unmarked) [Compound 108, 2-Hydroxy-N-[1-(toluene-4-sulfonyl)-piperidin-4-yl]-2-(4-trifluoromethyl-phenyl)-acetamide]
33 | 99 | O=C(Nc1cccc(OCc2ccccc2)c1)C(=O)C1CCCCC1 [Compound 12, N-(3-Benzyloxy-phenyl)-2-cyclohexyl-2-oxo-acetamide]
34 | 84 | Cc1ccc(S(=O)(=O)N2CCC(NC(=O)C(O)Cc3ccc(C(F)(F)F)cc3)CC2)cc1 (centres unmarked) [Compound 142, 2-Hydroxy-N-(1-tosylpiperidin-4-yl)-3-(4-(trifluoromethyl)phenyl)propanamide]

Same assay, conditions: Concentration 500000 nM

Row | % Inhibition [%] | SMILES
35 | 80 | O=C(Nc1ccc(-n2ccnc2)cc1)C(O)c1ccc(C(F)(F)F)cc1 (centres unmarked) [Compound 109, 2-Hydroxy-N-(4-imidazol-1-yl-phenyl)-2-(4-trifluoromethyl-phenyl)-acetamide]
